Laboratory results reported in patent US4956466A, “Thiazole derivatives and process for the preparation thereof” (Laboratorios Vinas, S. A., priority 1988, dated 1990).

Test system: ethanol-induced ulcers
Assay: Necrotising agent model: ethanol-induced ulcers
Type: in vivo, rat
Procedure: (B) Necrotising agent model:
Using the necrotising agent model, ethanol in this case, described by Robert el al. (Gastroenterology, 77: 433, 1979), the activity of LV-200 was compared with that of Nt at equimolar dose levels and a control group which was administered vehicle.
The table below gives the lesion indices (in ulcerated area in mm) of the three groups studied, as well as the percentage inhibition of the ulcers of the treated groups over the control group (mean values±standard error of the mean).

CNC(=C[N+](=O)[O-])NCCSCc1csc(CN(C)C)n1 [Nt, N-methyl-N'-2-((2(dimethylaminomethyl)-4-thiazolyl)methylthio)ethyl-2-nitro-1,1-ethylenediamine]
inhibition of ulcers induced by absolute ethanol (in words) (absolute ethanol): does not inhibit ulcers
% inhibition of the ulcers over the control group (ethanol, equimolar doses of LV-200 (230 mg/kg) and Nt): 0%
lesion index (ulcerated area), mm lesions (ethanol, equimolar doses of LV-200 (230 mg/kg) and Nt, mean ± standard error of the mean, control 91.2 ± 17.7, LV-200 p < 0.01 vs control, p < 0.001 versus Nt (t test)): 97.7 ± 11.8 mm
